Test results taken from patent publication US20250241863A1, “COMPOSITIONS AND METHODS FOR TARGETED DELIVERY OF THERAPEUTIC AND/OR DIAGNOSTIC SPECIES” (THE PENN STATE RESEARCH FOUNDATION, priority 2017, published 2025).
{FAM} = fluorescein (FAM) label; {NH2} = amine modification

Legend:
[1] = temperature dependency of retro Diels-Alder reaction (release of fluorescent si-RNA) for linker connected to a nanoparticle (FIGS. 10, 11); type: physicochemical; details: for cleavage of the linker: linker connected to a nanoparticle
From the text: (§1) For different Diels-Alder cyclo-addition products, the retro (or reverse) Diels-Alder reaction will occur or be initiated at different temperatures (i.e., different activation temperatures). Thus, by varying the Diels-Alder cyclo-addition product in the linker group, breaking up or cleaving of the Diels-Alder cyclo-addition product (and concomitant decoupling of the therapeutic species and the nanoparticle) can be “tuned” to occur at different temperatures.
Specifically, to conjugate a FAM-tagged RFP antisense siRNA mimic, an EDC coupling protocol was used with […] of an aqueous EDC/NHS (100 mM) stock solution added to each of the three resuspended nanoparticle aliquots prepared in Example 3, followed by […] of the amine-terminated siRNA (4 mM), After 24 h, the particles were again centrifuged, washed, and resuspended in DI water. A control sample in which cysteamine modified SNPs were linked to the 6-maleimidohexanoic acid via EDC coupling was also prepared, similarly to the pyrrole-based reaction described above, but without addition of the diene, to test the stability of both the amide and thiol linkages. Conjugation of the linkers and siRNA was tested by chemically reducing the Ag-linker bond using TCEP reagent (tris(2-carboxyethyl)phosphine hydrochloride) and measuring FAM intensity of the supernatant.
The products of these reactions (pyrrole, furan, and thiophene-based) were analyzed. For example, the temperature dependency of the retro Diels Alder reaction (and release of the fluorescent si-RNA) was evaluated. […] The fluorescence intensity of the treated sample is assumed to indicate maximum release (due to cleavage/retro (or reverse) Diels Alder reaction).

[2] = activation temperature of the retro Diels-Alder reaction of the linker groups (FIG. 7); type: physicochemical; details: linker group in FIG. 7
From the text: as §1

PAM2 skin cancer cells = test: anti-cancer effects of released miRN-148b in PAM2 cells (FIG. 23); type: cell-based; details: PAM2 cells transfected, 7 days after transfection (positive control)
Protocol: (§2) The anti-cancer effects towards PAM2 skin cancer cells of miRN-148b released from compositions described herein were explored using a furan-based linker conjugated with a FAM-tagged miRN-148b and an SNP. The furan-based linker composition was prepared according to Examples 1-5. SNPs surface-modified with miRNA mimics via Diels-Alder linkage, were sterilized in 70/30% ethanol and water solution prior to washing and resuspension in RNAse-free water. Subsequently, appropriate nanoparticle solution volumes were added, based on required dosages, to the adherent monolayer PAM2 cells at optimal seeding densities, immersed in appropriate cell culture media. Transfection was allowed to occur at 37° C. for 24 h.
FIG. 23A is a negative control showing fluorescence of the PAM2 cells in the presence of silver nanoparticles prepared in accordance with Example 1 after 7 days. FIG. 23B is a positive control showing PAM2 cells transfected with FAM-tagged miRN-148b 7 days after transfection.

[3] = tested on: Ras-induced keratinocyte lung cancer cells; test: anti-cancer effects of released miRN-148b in Ras-induced keratinocyte cells (FIG. 24); type: cell-based; details: keratinocyte cells transfected with 100 nM, after 7 days
Protocol: as §2, with “Ras-induced keratinocyte lung” for “PAM2 skin”
FIG. 24A is a negative control of keratinocyte cells in the absence of the composition and FAM-tagged miRN-148b after 7 days. FIG. 24B is a positive control of keratinocyte cells after 7 days, which have been transfected with FAM-tagged miRN-148b (100 nM).

## O=C(O)CCCCCN1C(=O)C2C3C=CC(CS)(O3)C2C1=O (centres unmarked) [furan-based linker group]
[1]; FIGS. 10 and 11
  speed of cleavage of the linker compared with the thiophene-based linker: faster at lower temperatures
[1]; after 1 hour of heating, at 60° C.
  cleavage of the linker: 25%
[2]
  activation temperature of the retro Diels-Alder reaction: 60 °C

## O=C(O)CCCCCN1C(=O)C2C3C=CC(C(=O)O)(N3)C2C1=O (centres unmarked) [pyrrole-based linker group]
[2]
  activation temperature of the retro Diels-Alder reaction: 40 °C

## O=C(O)CCCCCN1C(=O)C2C3C=CC(CS)(S3)C2C1=O (centres unmarked) [thiophene-based linker group]
[1]; after 2 hours of heating at 37° C., 60° C., and 80° C.
  cleavage of the linker: not observed until 80 °C
[2]
  activation temperature of the retro Diels-Alder reaction: around 80 °C

## FAM-tagged miRN-148b: 3′amine/5′-FAM modified single stranded siRNA, sequence UUGGAGCCGUACUGGAACUUG (5' {FAM}, 3' {NH2}, sugars by position and backbone not given here)
PAM2 skin cancer cells
  cell proliferation and growth: reduced cell proliferation and growth
[3]
  cell growth: normal cell behavior
